This is an account of results in patent publication US10829501B2 (BRISTOL-MYERS SQUIBB COMPANY, priority 2016, dated 2020).

Where a name gives a salt, the structure may show the parent alone. A value given as a limit tells only on which side of the number the result lay.

Sequence of ROCK2 (O75116 whole entry, species assumed): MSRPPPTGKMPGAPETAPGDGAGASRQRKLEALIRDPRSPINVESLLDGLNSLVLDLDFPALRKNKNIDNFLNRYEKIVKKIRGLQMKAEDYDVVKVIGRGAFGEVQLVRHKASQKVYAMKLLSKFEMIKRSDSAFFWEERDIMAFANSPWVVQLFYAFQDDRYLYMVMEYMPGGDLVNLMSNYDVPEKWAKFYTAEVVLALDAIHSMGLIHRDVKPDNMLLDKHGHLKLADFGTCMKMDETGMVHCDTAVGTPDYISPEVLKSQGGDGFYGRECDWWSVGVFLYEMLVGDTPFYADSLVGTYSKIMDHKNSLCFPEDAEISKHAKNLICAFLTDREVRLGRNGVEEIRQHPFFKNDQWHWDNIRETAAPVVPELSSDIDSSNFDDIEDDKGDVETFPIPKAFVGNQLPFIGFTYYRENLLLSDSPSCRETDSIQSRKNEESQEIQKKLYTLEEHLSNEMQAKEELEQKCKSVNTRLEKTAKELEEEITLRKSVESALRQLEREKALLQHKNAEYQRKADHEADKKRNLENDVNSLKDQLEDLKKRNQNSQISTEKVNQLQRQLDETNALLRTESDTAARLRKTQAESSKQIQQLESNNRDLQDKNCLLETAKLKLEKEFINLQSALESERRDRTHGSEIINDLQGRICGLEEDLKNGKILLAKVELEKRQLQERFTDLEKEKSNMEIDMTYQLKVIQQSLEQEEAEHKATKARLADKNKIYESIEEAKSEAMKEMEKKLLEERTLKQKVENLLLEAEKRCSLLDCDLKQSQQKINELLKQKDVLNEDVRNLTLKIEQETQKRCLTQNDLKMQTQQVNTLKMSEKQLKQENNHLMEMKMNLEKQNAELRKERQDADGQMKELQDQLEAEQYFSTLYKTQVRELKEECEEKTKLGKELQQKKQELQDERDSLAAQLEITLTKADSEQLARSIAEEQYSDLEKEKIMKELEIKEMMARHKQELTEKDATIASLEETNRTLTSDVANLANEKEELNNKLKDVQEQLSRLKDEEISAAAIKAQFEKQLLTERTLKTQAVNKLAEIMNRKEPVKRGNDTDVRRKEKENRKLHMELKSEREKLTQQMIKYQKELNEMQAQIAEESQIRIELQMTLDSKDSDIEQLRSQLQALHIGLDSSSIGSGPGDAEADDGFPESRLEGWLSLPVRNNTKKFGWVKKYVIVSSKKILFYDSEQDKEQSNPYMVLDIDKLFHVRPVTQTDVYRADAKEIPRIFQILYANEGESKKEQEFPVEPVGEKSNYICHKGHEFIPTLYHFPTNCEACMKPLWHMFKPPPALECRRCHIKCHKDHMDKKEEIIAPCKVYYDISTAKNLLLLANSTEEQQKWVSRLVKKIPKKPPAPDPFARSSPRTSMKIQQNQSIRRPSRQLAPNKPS

One experiment has as its target ROCK2 (Homo sapiens, UniProt O75116). As to the kind of experiment: ROCK2 kinase inhibition assay (LABCHIP 3000 Reader, FITC peptide substrate).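 Note: rho kinase reaction read by separating phosphorylated from unphosphorylated peptide on chip, with inhibition of kinase activity computed per concentration across a dose-response series.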
Conditions: not given
`COc1cccc(-c2ccc3c(C(=O)N[C@H]4CC5(C4)C[C@H](Oc4ncccc4C(N)=O)C5)nn(C(F)F)c3c2)c1` (stereo partly drawn) [Example 177, N-((aR)-6-((3-carbamoylpyridin-2-yl)oxy)spiro[3.3]heptan-2-yl)-1-(difluoromethyl)-6-(3-methoxyphenyl)-1H-indazole-3-carboxamide, trifluoroacetate] had an IC50 of 0.005 to 0.05 µM.

`CC(C)(O)COc1ccc2c(C(=O)NC3CC4(C3)CC(Oc3cc(-c5cccc(O)c5)ccc3C(N)=O)C4)cnn2c1` (centres unmarked) [Example 240, N-(6-((4-carbamoyl-3′-hydroxy-[1,1′-biphenyl]-3-yl)oxy)spiro[3.3]heptan-2-yl)-6-(2-hydroxy-2-methylpropoxy)pyrazolo[1,5-a]pyridine-3-carboxamide] returned an IC50 of 0.005 to 0.05 µM. For the molecule `COc1cccc(C(N)=O)c1OC1CC2(CC(NC(=O)c3cnn4cc(OCC(C)(C)O)ccc34)C2)C1` (centres unmarked) [Example 209, N-(6-(2-carbamoyl-6-methoxyphenoxy)spiro[3.3]heptan-2-yl)-6-(2-hydroxy-2-methylpropoxy)pyrazolo[1,5-a]pyridine-3-carboxamide], the IC50 was 0.25 to 2.5 µM. `CC(C)(O)COc1ccc2c(C(=O)NC3CC4(C3)CC(Oc3cc(-c5cccc(Cl)n5)ccc3C(N)=O)C4)cnn2c1` (centres unmarked) [Example 248]: the IC50 lay in the range of 0.005 to 0.05 µM. For the molecule `COc1ccc(C(N)=O)c(O[C@H]2CC3(C[C@H](NC(=O)c4cnn5c(CCC(F)(F)F)c(OCC(C)(C)O)ccc45)C3)C2)n1` (stereo partly drawn) [Example 168, N-((aR)-6-((3-carbamoyl-6-methoxypyridin-2-yl)oxy)spiro[3.3]heptan-2-yl)-6-(2-hydroxy-2-methylpropoxy)-7-(3,3,3-trifluoropropyl)pyrazolo [1,5-a]pyridine-3-carboxamide], the IC50 is < 0.005 µM. In turn, `NC(=O)c1cccnc1OC1CC2(CC(NC(=O)N3CCc4ccccc43)C2)C1` (centres unmarked) [Example 12, N-(6-((3-carbamoylpyridin-2-yl)oxy)spiro[3.3]heptan-2-yl)indoline-1-carboxamide] had an IC50 of 0.05 to 0.25 µM.

As for `NC(=O)c1cccnc1O[C@H]1CC2(C[C@H](NC(=O)c3cnc4cc(N5CCC(F)(F)CC5)ccn34)C2)C1` (stereo partly drawn) [Example 324, N-((aR)-6-((3-carbamoylpyridin-2-yl)oxy)spiro[3.3]heptan-2-yl)-7-(4,4-difluoropiperidin-1-yl)imidazo[1,2-a]pyridine-3-carboxamide], the IC50 was < 0.005 µM. The same measure, in the same setting: under `NC(=O)c1ccccc1O[C@H]1CC2(C[C@H](NC(=O)N3CCc4ccccc43)C2)C1` (stereo partly drawn) [Example 37, N-((aR)-6-(2-carbamoylphenoxy)spiro[3.3]heptan-2-yl)indoline-1-carboxamide] stands 0.05 to 0.25 µM. For `NC(=O)c1cccnc1O[C@H]1CC2(C[C@H](NC(=O)c3nn(C(F)F)c4cc(Br)ccc34)C2)C1` (stereo partly drawn) [Example 172, 6-bromo-N-((aR)-6-((3-carbamoylpyridin-2-yl)oxy)spiro[3.3]heptan-2-yl)-1-(difluoromethyl)-1H-indazole-3-carboxamide, trifluoroacetate], the IC50 was in the range of 0.005 to 0.05 µM. Molecule `NC(=O)c1cccnc1O[C@H]1CC2(C[C@H](NC(=O)c3ccc(-c4cccc(F)c4)cc3)C2)C1` (stereo partly drawn) [Example 162, 2-(((aR)-6-(3′-fluoro-[1,1′-biphenyl]-4-ylcarboxamido)spiro[3.3]heptan-2-yl)oxy)nicotinamide] displayed an IC50 of 0.005 to 0.05 µM. On the same count and under the same terms, under `Cc1ccc(OC2CC3(CC(NC(=O)c4cnn5c(C6CC6)c(OCC(C)(C)O)ccc45)C3)C2)c(C(N)=O)c1` (centres unmarked) [Example 216, N-(6-(2-carbamoyl-4-methylphenoxy)spiro[3.3]heptan-2-yl)-7-cyclopropyl-6-(2-hydroxy-2-methylpropoxy)pyrazolo[1,5-a]pyridine-3-carboxamide] stands 0.005 to 0.05 µM; under `CC(C)(O)COc1ccc2c(C(=O)NC3CC4(C3)CC(Oc3cc(-c5cccc(COC(=O)NCCC(=O)OC(C)(C)C)c5)ccc3C(N)=O)C4)cnn2c1` (centres unmarked) [Example 250, tert-butyl 3-((((4′-carbamoyl-3′-((6-(6-(2-hydroxy-2-methylpropoxy)pyrazolo[1,5-a]pyridine-3-carboxamido)spiro[3.3]heptan-2-yl)oxy)-[1,1′-biphenyl]-3-yl)methoxy)carbonyl)amino)propanoate], 0.05 to 0.25 µM; under `NC(=O)c1cccnc1O[C@H]1CC2(C[C@H](NC(=O)c3nn(C(F)F)c4cc(OCc5ccccc5)ccc34)C2)C1` (stereo partly drawn) [Example 171, 6-(benzyloxy)-N-((aR)-6-((3-carbamoylpyridin-2-yl)oxy)spiro[3.3]heptan-2-yl)-1-(difluoromethyl)-1H-indazole-3-carboxamide, trifluoroacetate], 0.005 to 0.05 µM. Regarding `NC(=O)c1cccnc1O[C@H]1CC2(C[C@H](NC(=O)c3ccn4ccnc4c3)C2)C1` (stereo partly drawn) [Example 71, N-((aR)-6-((3-carbamoylpyridin-2-yl)oxy)spiro[3.3]-heptan-2-yl)imidazo[1,2-a] pyridine-7-carboxamdie, trifluoroacetate], the IC50 was 0.25 to 2.5 µM.

`NC(=O)c1cccnc1O[C@H]1CC2(C[C@H](NC(=O)c3cnn4c(CCC(F)(F)F)c(OCCC(F)(F)F)ccc34)C2)C1` (stereo partly drawn) [Example 115, N-((aR)-6-((3-carbamoylpyrdin-2-yl)oxy)spiro[3.3]heptan-2-yl)-6-(3,3,3-trifluoropropoxy)-7-(3,3,3-trifluoropropyl) pyrazolo[1,5-a]pyridine-3-carboxamdie, trifluoroacetate] showed an IC50 of 0.005 to 0.05 µM. Consider `[H][C@]1(Oc2ncccc2C(N)=O)C[C@@]2(C[C@H](NC(=O)c3cnn4c(C5CC5)c(OCC(C)(C)F)ccc34)C2)C1` (stereo partly drawn) [Example 49, N-((aR)-6-((3-carbamoylpyridin-2-yl)oxy)spiro[3.3]heptan-2-yl)-7-cyclopropyl-6-(2-fluoro-2-methylpropoxy)pyrazolo[1,5-a]pyridine-3-carboxamide], for which the IC50 is < 0.005 µM. As for `NC(=O)c1cccnc1OC1CC2(CC(NC(=O)c3c[nH]c(-c4ccccc4)n3)C2)C1` [Example 390, N-[(aR)2-({6-(2-phenyl-1H-imidazole)-4-carboxamido]spiro[3.3]heptan-2-yl}oxy)nicotinamide], the IC50 fell in the range of 0.25 to 2.5 µM. Consider `COc1ccc(OC2CC3(CC(NC(=O)c4cnn5c(C6CC6)c(OCC(C)(C)O)ccc45)C3)C2)c(C(N)=O)c1` (centres unmarked) [Example 213, N-(6-(2-carbamoyl-4-methoxyphenoxy)spiro[3.3]heptan-2-yl)-7-cyclopropyl-6-(2-hydroxy-2-methylpropoxy)pyrazolo[1,5-a]pyridine-3-carboxamide], for which the IC50 is 0.005 to 0.05 µM. Regarding `CC(C)(O)COc1ccc2c(C(=O)N[C@H]3CC4(C3)C[C@H](Oc3ncccc3C(N)=O)C4)nn(C(F)F)c2c1` (stereo partly drawn) [Example 108, N-((aR)-6-((3-carbamoylpyridin-2-yl)oxy)spiro[3.3]heptan-2-yl)-1-(difluoromethyl)-6-(2-hydroxy-2-methylpropoxy)-1H-indazole-3-carboxamide, trifluoroacetate], the IC50 is < 0.005 µM. `NC(=O)c1ccccc1O[C@H]1CC2(C[C@H](NC(=O)c3cnn4cc(OC(F)F)ccc34)C2)C1` (stereo partly drawn) [Example 24, N-[(aR)-6-(2-carbamoylphenoxy)spiro[3.3]heptan-2-yl]-6-(difluoromethoxy)pyrazolo [1,5-a]pyridine-3-carboxamide] registered an IC50 of 0.005 to 0.05 µM.

Still in this experiment, the particulars now being: read-out: ROCK2 Activity (ROCK2 IC50); 5 μM ATP, 1.5 μM peptide substrate, pH 7.5.
For the molecule “N-((aR)- 6-((3- carbamoyl- pyridin-2- yl)oxy)spiro[3.3] heptan-2-yl)- 1-(2- hydroxy-2- methylpropyl)-1H- pyraolo[3,4-b] pyridine-3- carboxamide, trifluoroacetate [Example 94]”, the IC50 was 0.005 to 0.05 µM.

As to `CN1CCN(c2cc(C(=O)NC3CC4(C3)CC(Oc3ncccc3C(N)=O)C4)cc(C(F)(F)F)c2)CC1` [Example 422, 2-(((aR)-6-(3-(4-methylpiperazin-1-yl)-5-(trifluoromethyl)benzamido)spiro[3.3]heptan-2-yl)oxy)nicotinamide], the IC50 lay in the range of 0.005 to 0.05 µM.

As for “2-((aR)-6- (1-methyl-3- (trifluoromethyl)- 1H-pyrazole- 5-carboxamido) spiro[3.3]heptan- 2-yl)oxy) nicotinamide, trifluoroacetate [Example 86]”, the IC50 was in the range of 0.05 to 0.25 µM. With `CS(=O)(=O)c1cc(Br)cc(C(=O)NC2CC3(C2)CC(Oc2ncccc2C(N)=O)C3)c1` [Example 119, 2-((aR)-6-(3-bromo-5-(methylsulfonyl)benzamido)spiro[3.3]heptan-2-yl)oxy) nicotinamide, trifluoroacetate], the IC50 was 0.005 to 0.05 µM. On the same count and under the same terms, under `NC(=O)c1cccnc1OC1CC2(CC(NC(=O)c3nc(C(F)(F)F)n4cc(OCc5ccccc5)ccc34)C2)C1` [Example 431, 6-(benzyloxy)-N-((aR)-6-((3-carbamoylpyridin-2-yl)oxy)spiro[3.3]heptan-2-yl)-3-(trifluoromethyl)imidazo[1,5-a]pyridine-1-carboxamide] stands 0.005 to 0.05 µM. In the case of `CC(C)(C#N)n1nc(C(=O)NC2CC3(C2)CC(Oc2ncccc2C(N)=O)C3)c2ccc(Br)cc21` [Example 403, 6-bromo-N-((aR)-6-((3-carbamoylpyridin-2-yl)oxy)spiro[3.3]heptan-2-yl)-1-(2-cyanopropan-2-yl)-1H-indazole-3-carboxamide, TFA], the IC50 fell in the range of 0.005 to 0.05 µM. For `Cc1nn(Cc2ccc(F)cc2)cc1C(=O)NC1CC2(C1)CC(Oc1ncccc1C(N)=O)C2` [Example 382, N-[(aR)2-[(6-{1-[(4-fluorophenyl)methyl]-3-methyl-1H-pyrazole-4-amido}spiro[3.3]heptan-2-yl)oxy]pyridine-3-carboxamide 1 trifluoroacetic acid salt], the IC50 lay within 0.005 to 0.05 µM. Turning to `NC(=O)c1cccnc1O[C@H]1CC2(C[C@H](NC(=O)c3nn(C(F)F)c4cc(F)ccc34)C2)C1` (stereo partly drawn) [Example 103, N-((aR)-6-((3-carbamoylpyridin-2-yl)oxy)piro[3.3]heptan-2-yl-1-(difluoromethyl)-6-fluoro-1H-indazole-3-carboxamide, trifluoroacetate], the IC50 is < 0.005 µM. Turning to `Cc1ncc(-c2cc(C(=O)NC3CC4(C3)CC(Oc3ncccc3C(N)=O)C4)cc(C(F)(F)F)c2)s1` [Example 446, 2-(((aR)-6-(3-(2-methylthiazol-5-yl)-5-(trifluoromethyl)benzamido)spiro[3.3]heptan-2-yl)oxy)nicotinamide], the IC50 was < 0.005 µM.

Broadly, the IC50 is the concentration that gives 50% inhibition.
